Source: PubChem BioAssay AID1918944 (Molecular Pharmacology Branch, DTP, NCI, 2023)
pIC50: −log10 of the molar value. Values joined by “and” are separate entries in the source; they are usually repeats but may differ in a detail not shown here. Identical values can stand only once.

System: 786-0 complex spheroid viability
Assay: Anticancer human tumor 786-0 cell line growth inhibition;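 also: spheroids exposed to agents for seven days before readout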
Settings: for viability, T/C: stronger effect = lower value
Procedure, shortened: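 Multicellular complex spheroids of tumor cells with human endothelial cells (HUVEC) and mesenchymal stem cells; the LSD1 inhibitor iadademstat was combined with standard-of-care or investigational agents. Top concentration at or near clinical Cmax, half-log dilutions; final DMSO ≤0.25%.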

[1] = curve of first compound, second compound 0.1 µM
[2] = curve of first compound, second compound 0.316 µM
[3] = curve of first compound, second compound 1 µM
[4] = curve of first compound, second compound 3.16 µM
[5] = curve of first compound, second compound 10 µM

`Nc1ncn(C2CC(O)C(CO)S2)c(=O)n1` (centres undefined) + NC1CC1c1ccc(-c2cccc(O)c2)cc1 was tested. Which pIC50 [1] did it give?
The pIC50 was 6.67.

What about the pIC50 [2] of the same molecule?
Its pIC50 is < 6.52.

And the pIC50 [3]?
The pIC50 was 6.59.

And the pIC50 [4]?
Its pIC50 is 6.60.

What about the pIC50 [5] of the same molecule?
The pIC50 was < 6.52.

And the viability, T/C (second compound 0.1 µM, first compound 0.000949 µM)?
Its viability, T/C is 117%.

What about the viability, T/C (second compound 0.1 µM, first compound 0.003 µM) of the same molecule?
The viability, T/C was 114%.

What about the viability, T/C (second compound 0.1 µM, first compound 0.00949 µM) of the same molecule?
Its viability, T/C is 113%.

What about the viability, T/C (second compound 0.1 µM, first compound 0.03 µM) of the same molecule?
Its viability, T/C is 99%.

And the viability, T/C (second compound 0.1 µM, first compound 0.0949 µM)?
Its viability, T/C is 81.5%.

And the viability, T/C (second compound 0.1 µM, first compound 0.3 µM)?
Its viability, T/C is 37.6%.

What about the viability, T/C (second compound 0.316 µM, first compound 0.000949 µM) of the same molecule?
Its viability, T/C is 116%.

And the viability, T/C (second compound 0.316 µM, first compound 0.003 µM)?
Its viability, T/C is 121%.

And the viability, T/C (second compound 0.316 µM, first compound 0.00949 µM)?
Its viability, T/C is 112%.

And the viability, T/C (second compound 0.316 µM, first compound 0.03 µM)?
Its viability, T/C is 106%.

And the viability, T/C (second compound 0.316 µM, first compound 0.0949 µM)?
Its viability, T/C is 86.8%.

What about the viability, T/C (second compound 0.316 µM, first compound 0.3 µM) of the same molecule?
Its viability, T/C is 51%.

And the viability, T/C (second compound 1 µM, first compound 0.000949 µM)?
The viability, T/C was 121%.

And the viability, T/C (second compound 1 µM, first compound 0.003 µM)?
Its viability, T/C is 110%.

What about the viability, T/C (second compound 1 µM, first compound 0.00949 µM) of the same molecule?
Its viability, T/C is 110%.

What about the viability, T/C (second compound 1 µM, first compound 0.03 µM) of the same molecule?
Its viability, T/C is 100%.

And the viability, T/C (second compound 1 µM, first compound 0.0949 µM)?
Its viability, T/C is 83.2%.

And the viability, T/C (second compound 1 µM, first compound 0.3 µM)?
The viability, T/C was 44%.

What about the viability, T/C (second compound 3.16 µM, first compound 0.000949 µM) of the same molecule?
Its viability, T/C is 111%.

What about the viability, T/C (second compound 3.16 µM, first compound 0.003 µM) of the same molecule?
The viability, T/C was 109%.

And the viability, T/C (second compound 3.16 µM, first compound 0.00949 µM)?
Its viability, T/C is 102%.

And the viability, T/C (second compound 3.16 µM, first compound 0.03 µM)?
The viability, T/C was 102%.

What about the viability, T/C (second compound 3.16 µM, first compound 0.0949 µM) of the same molecule?
The viability, T/C was 79.3%.

What about the viability, T/C (second compound 3.16 µM, first compound 0.3 µM) of the same molecule?
Its viability, T/C is 44.2%.

And the viability, T/C (second compound 10 µM, first compound 0.000949 µM)?
Its viability, T/C is 93.3%.

And the viability, T/C (second compound 10 µM, first compound 0.003 µM)?
Its viability, T/C is 100%.

What about the viability, T/C (second compound 10 µM, first compound 0.00949 µM) of the same molecule?
Its viability, T/C is 95.1%.

And the viability, T/C (second compound 10 µM, first compound 0.03 µM)?
Its viability, T/C is 95.2%.

What about the viability, T/C (second compound 10 µM, first compound 0.0949 µM) of the same molecule?
The viability, T/C was 81.3%.

What about the viability, T/C (second compound 10 µM, first compound 0.3 µM) of the same molecule?
The viability, T/C was 53.9%.

`CC1(C)CCC(CN2CCN(c3ccc(C(=O)NS(=O)(=O)c4ccc(NCC5CCOCC5)c([N+](=O)[O-])c4)c(Oc4cnc5[nH]ccc5c4)c3)CC2)=C(c2ccc(Cl)cc2)C1` + NC1CCC(NC2CC2c2ccccc2)CC1 was tested. Which pIC50 [1] did it give?
Its pIC50 is < 5.00.

And the pIC50 [2]?
The pIC50 was < 5.00.

What about the pIC50 [3] of the same molecule?
Its pIC50 is < 5.00.

What about the pIC50 [4] of the same molecule?
Its pIC50 is 5.03.

And the pIC50 [5]?
The pIC50 was 5.20.

And the viability, T/C (second compound 0.1 µM, first compound 0.0316 µM)?
Its viability, T/C is 113%.

What about the viability, T/C (second compound 0.1 µM, first compound 0.1 µM) of the same molecule?
The viability, T/C was 117%.

And the viability, T/C (second compound 0.1 µM, first compound 0.316 µM)?
The viability, T/C was 110%.

And the viability, T/C (second compound 0.1 µM, first compound 1 µM)?
The viability, T/C was 116%.

And the viability, T/C (second compound 0.1 µM, first compound 3.16 µM)?
The viability, T/C was 103%.

What about the viability, T/C (second compound 0.1 µM, first compound 10 µM) of the same molecule?
Its viability, T/C is 68.1%.

And the viability, T/C (second compound 0.316 µM, first compound 0.0316 µM)?
Its viability, T/C is 117%.

And the viability, T/C (second compound 0.316 µM, first compound 0.1 µM)?
The viability, T/C was 121%.

What about the viability, T/C (second compound 0.316 µM, first compound 0.316 µM) of the same molecule?
Its viability, T/C is 120%.

What about the viability, T/C (second compound 0.316 µM, first compound 1 µM) of the same molecule?
The viability, T/C was 120%.

What about the viability, T/C (second compound 0.316 µM, first compound 3.16 µM) of the same molecule?
The viability, T/C was 106%.

What about the viability, T/C (second compound 0.316 µM, first compound 10 µM) of the same molecule?
The viability, T/C was 67.1%.

What about the viability, T/C (second compound 1 µM, first compound 0.0316 µM) of the same molecule?
Its viability, T/C is 116%.

And the viability, T/C (second compound 1 µM, first compound 0.1 µM)?
The viability, T/C was 116%.

What about the viability, T/C (second compound 1 µM, first compound 0.316 µM) of the same molecule?
Its viability, T/C is 118%.

What about the viability, T/C (second compound 1 µM, first compound 1 µM) of the same molecule?
Its viability, T/C is 108%.

And the viability, T/C (second compound 1 µM, first compound 3.16 µM)?
Its viability, T/C is 104%.

And the viability, T/C (second compound 1 µM, first compound 10 µM)?
Its viability, T/C is 58.3%.

And the viability, T/C (second compound 3.16 µM, first compound 0.0316 µM)?
Its viability, T/C is 110%.

And the viability, T/C (second compound 3.16 µM, first compound 0.1 µM)?
Its viability, T/C is 109%.

And the viability, T/C (second compound 3.16 µM, first compound 0.316 µM)?
The viability, T/C was 107%.

What about the viability, T/C (second compound 3.16 µM, first compound 1 µM) of the same molecule?
The viability, T/C was 96%.

And the viability, T/C (second compound 3.16 µM, first compound 3.16 µM)?
The viability, T/C was 85.3%.

What about the viability, T/C (second compound 3.16 µM, first compound 10 µM) of the same molecule?
Its viability, T/C is 47.4%.

What about the viability, T/C (second compound 10 µM, first compound 0.0316 µM) of the same molecule?
Its viability, T/C is 90.2%.

And the viability, T/C (second compound 10 µM, first compound 0.1 µM)?
Its viability, T/C is 94.6%.

What about the viability, T/C (second compound 10 µM, first compound 0.316 µM) of the same molecule?
The viability, T/C was 89.3%.

And the viability, T/C (second compound 10 µM, first compound 1 µM)?
Its viability, T/C is 74.1%.

And the viability, T/C (second compound 10 µM, first compound 3.16 µM)?
The viability, T/C was 63.2%.

And the viability, T/C (second compound 10 µM, first compound 10 µM)?
The viability, T/C was 41.8%.

`CCc1c2c(nc3ccc(O)cc13)-c1cc3c(c(=O)n1C2)COC(=O)[C@]3(O)CC` was tested. Which viability, T/C (compound 0.000949 µM) did it give?
Its viability, T/C is 6% and 6.39%.

What about the viability, T/C (compound 0.003 µM) of the same molecule?
Its viability, T/C is 4.1% and 4.99%.

And the viability, T/C (compound 0.00949 µM)?
The viability, T/C was 3.66% and 5.52%.

What about the viability, T/C (compound 0.03 µM) of the same molecule?
The viability, T/C was 3.36% and 6.78%.

What about the viability, T/C (compound 0.0949 µM) of the same molecule?
The viability, T/C was 4.94% and 9.67%.

What about the viability, T/C (compound 0.3 µM) of the same molecule?
The viability, T/C was 3.44% and 9.65%.

And the pIC50 (curve of compound)?
The pIC50 was > 9.02.

Which viability, T/C (compound 0.00949 µM) does the source give for `CCN(c1cc(-c2ccc(CN3CCOCC3)cc2)cc(C(=O)NCc2c(C)cc(C)[nH]c2=O)c1C)C1CCOCC1` here?
The viability, T/C was 100%.

And the viability, T/C (compound 0.03 µM)?
Its viability, T/C is 103% and 105%.

And the viability, T/C (compound 0.0949 µM)?
Its viability, T/C is 106% and 100%.

What about the viability, T/C (compound 0.3 µM) of the same molecule?
The viability, T/C was 104% and 102%.

What about the viability, T/C (compound 0.949 µM) of the same molecule?
Its viability, T/C is 102% and 98%.

And the viability, T/C (compound 3 µM)?
The viability, T/C was 97.4% and 96.9%.

And the pIC50 (curve of compound)?
The pIC50 was < 5.52.
